Results published in patent US20240018133A1, “MODULATORS OF THE INTEGRATED STRESS PATHWAY” (Calico Life Sciences LLC, priority 2019, published 2024).

system: ATF4 luciferase reporter (human full-length ATF4 5'-UTR fused to firefly luciferase) in HEK293T cells; test: ATF4-Luc assay (in vitro model of VWMD): HEK293T cells carrying ATF4 luciferase reporter, tunicamycin-treated; assay type: cell-based; details: Homo sapiens, HEK-293T, 1 μg/mL tunicamycin, 7 hours, One Glo luminescence
Outline: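 Reporter cells were stably generated by retroviral transduction and puromycin selection, then seeded at 30,000 cells/well. Next day, cells received 1 μg/mL tunicamycin with 200 nM test compound for 7 h, and luciferase luminescence was read with a one-step reagent. Values reported as EC50.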

SMILES	EC50
O=C(NC12CC(NC(=O)[C@H]3C[C@@H](O)c4cc(Cl)ccc4O3)(C1)C2)c1ccccn1 [Compound 386, N-(3-{[(2R,4R)-6-chloro-4-hydroxy-3,4-dihydro-2H-1-benzopyran-2-carbonyl]amino}bicyclo[1.1.1]pentan-1-yl)pyridine-2-carboxamide]	50 to 250 nM
O=C(COc1ccc(C(F)(F)F)nc1)NC12CC(NC(=O)[C@@H]3C[C@H](O)c4cc(Cl)ccc4O3)(C1)C2 [Compound 299, (2S,4S)-6-chloro-4-hydroxy-N-[3-(2-{[6-(trifluoromethyl)pyridin-3-yl]oxy}acetamido)bicyclo[1.1.1]pentan-1-yl]-3,4-dihydro-2H-1-benzopyran-2-carboxamide]	10 to 50 nM
O=C(NC12CCC(NC(=O)[C@H]3C[C@@H](O)c4cc(Cl)ccc4O3)(C1)C2)c1ccc(C(F)(F)F)cc1 [Compound 374, (2R,4R)-6-chloro-4-hydroxy-N-{4-[4-(trifluoromethyl)benzamido]bicyclo[2.1.1]hexan-1-yl}-3,4-dihydro-2H-1-benzopyran-2-carboxamide]	250 to 500 nM
O=C(COc1ccc(Cl)c(F)c1)N[C@@H]1C[C@@H]2C[C@H]1C[C@H]2NC(=O)[C@H]1C[C@@H](O)c2cc(Cl)ccc2O1 (racemic) [Compound 371, (2R,4R)-6-chloro-N-{(1RS,2SR,4RS,5SR)-5-[2-(4-chloro-3-fluorophenoxy)acetamido]bicyclo[2.2.1]heptan-2-yl}-4-hydroxy-3,4-dihydro-2H-1-benzopyran-2-carboxamide]	< 10 nM
O=C(NC12CC(NC(=O)[C@H]3C[C@@H](O)c4cc(Cl)ccc4O3)(C1)C2)c1cnn([C@H]2C[C@@H](OC(F)(F)F)C2)c1 [Compound 381, N-(3-{[(2R,4R)-6-chloro-4-hydroxy-3,4-dihydro-2H-1-benzopyran-2-carbonyl]amino}bicyclo[1.1.1]pentan-1-yl)-1-[cis-3-(trifluoromethoxy)cyclobutyl]-1H-pyrazole-4-carboxamide]	< 10 nM
O=C(COc1ccc(Cl)c(F)c1)NC12CC(NC(=O)[C@H]3C[C@@H](O)c4ccccc4O3)(C1)C2 [Compound 267, (2R,4R)—N-{3-[2-(4-chloro-3-fluorophenoxy)acetamido]bicyclo[1.1.1]pentan-1-yl}-4-hydroxy-3,4-dihydro-2H-1-benzopyran-2-carboxamide]	10 to 50 nM
O=C(NC12CC(NC(=O)[C@H]3C[C@@H](O)c4cc(Cl)ccc4O3)(C1)C2)c1cnn(-c2ccccc2)c1 [Compound 390, N-(3-{[(2R,4R)-6-chloro-4-hydroxy-3,4-dihydro-2H-1-benzopyran-2-carbonyl]amino}bicyclo[1.1.1]pentan-1-yl)-1-phenyl-1H-pyrazole-4-carboxamide]	10 to 50 nM
O=C(COc1ccc(Cl)c(F)c1)NC12CC(NC(=O)c3cc(=O)c4cc(Cl)c(F)cc4o3)(C1)C2 [Compound 231, 6-chloro-N-{3-[2-(4-chloro-3-fluorophenoxy)acetamido]bicyclo[1.1.1]pentan-1-yl}-7-fluoro-4-oxo-4H-1-benzopyran-2-carboxamide]	< 10 nM
O=C(COc1ccc(Cl)c(F)c1)NC12CCC(NC(=O)[C@H]3C[C@H](O)c4cc(Cl)ccc4O3)(C1)C2 [Compound 260, (2R,4S)-6-chloro-N-{4-[2-(4-chloro-3-fluorophenoxy)acetamido]bicyclo[2.1.1]hexan-1-yl}-4-hydroxy-3,4-dihydro-2H-1-benzopyran-2-carboxamide]	< 10 nM
O=C(COc1ccc(Cl)c(F)c1)NC12CC(NC(=O)[C@H]3C[C@@H](N[C@H]4C[C@@H](O)C4)c4cc(Cl)ccc4O3)(C1)C2 [Compound 328, (2R,4R)-6-chloro-N-{3-[2-(4-chloro-3-fluorophenoxy)acetamido]bicyclo[1.1.1]pentan-1-yl}-4-{[(1s,3S)-3-hydroxycyclobutyl]amino}-3,4-dihydro-2H-1-benzopyran-2-carboxamide]	50 to 250 nM
CO[C@@H]1C[C@H](C(=O)NC23CC(NC(=O)COc4ccc(Cl)c(F)c4)(C2)C3)Oc2ccc(Cl)cc21 (racemic) [Compound 340, rac-(2R,4R)-6-chloro-N-{3-[2-(4-chloro-3-fluorophenoxy)acetamido]bicyclo[1.1.1]pentan-1-yl}-4-methoxy-3,4-dihydro-2H-1-benzopyran-2-carboxamide]	< 10 nM
O=C(NC12CCC(NC(=O)[C@@H]3C[C@H](O)c4cc(Cl)ccc4O3)(CC1)[C@@H](O)C2)c1cc(C(F)F)no1 (single isomer, unassigned) [Compound 216]	250 to 500 nM
O=C(COc1ccc(F)c(F)c1)NC12CC(NC(=O)[C@@H]3C[C@H](O)c4cc(Cl)ccc4O3)(C1)C2 [Compound 278, (2S,4S)-6-chloro-N-{3-[2-(3,4-difluorophenoxy)acetamido]bicyclo[1.1.1]pentan-1-yl}-4-hydroxy-3,4-dihydro-2H-1-benzopyran-2-carboxamide]	10 to 50 nM
O=C(NC12CC(NC(=O)[C@H]3C[C@@H](O)c4cc(Cl)ccc4O3)(C1)C2)c1cnc(C(F)F)cn1 (racemic) [Compound 218, N-(3-{[rac-(2R,4R)-6-chloro-4-hydroxy-3,4-dihydro-2H-1-benzopyran-2-carbonyl]amino}bicyclo[1.1.1]pentan-1-yl)-5-(difluoromethyl)pyrazine-2-carboxamide]	10 to 50 nM
O=C(COc1ccc(Cl)c(F)c1)NC12CC(NC(=O)[C@@H]3C=Cc4cc(Cl)ccc4O3)(C1)C2 [Compound 279, (2S)-6-chloro-N-{3-[2-(4-chloro-3-fluorophenoxy)acetamido]bicyclo[1.1.1]pentan-1-yl}-2H-1-benzopyran-2-carboxamide]	< 10 nM
C[C@@]1(O)C[C@@H](C(=O)NC23CC(NC(=O)COc4ccc(Cl)c(F)c4)(C2)C3)Oc2ccc(Cl)cc21 (single isomer, unassigned) [Compound 288]	< 10 nM
O=C(COc1ccc(Cl)c(F)c1)NC12CC(NC(=O)c3cc(=O)c4cc(F)cc(F)c4o3)(C1)C2 [Compound 292, N-{3-[2-(4-chloro-3-fluorophenoxy)acetamido]bicyclo[1.1.1]pentan-1-yl}-6,8-difluoro-4-oxo-4H-1-benzopyran-2-carboxamide]	50 to 250 nM
O=C(NC12CC(NC(=O)[C@H]3CC(=O)c4cc(Cl)ccc4O3)(C1)C2)c1ccc(OC(F)(F)F)cn1 [Compound 379, N-(3-{[(2R)-6-chloro-4-oxo-3,4-dihydro-2H-1-benzopyran-2-carbonyl]amino}bicyclo[1.1.1]pentan-1-yl)-5-(trifluoromethoxy)pyridine-2-carboxamide]	500 to 2000 nM
O=C(COc1ccc(Cl)c(F)c1)NC12CC(NC(=O)c3cc(=O)c4cccc(Cl)c4o3)(C1)C2 [Compound 294, 8-chloro-N-{3-[2-(4-chloro-3-fluorophenoxy)acetamido]bicyclo[1.1.1]pentan-1-yl}-4-oxo-4H-1-benzopyran-2-carboxamide]	500 to 2000 nM
O=C(COc1ccc(Cl)c(F)c1)NC12CCC(NC(=O)[C@@H]3C[C@H](O)c4cc(Cl)ccc4O3)(CC1)[C@@H](O)C2 (single isomer, unassigned) [Compound 239]	< 10 nM
O=C(NC12CCC(NC(=O)C3CC(=O)c4cc(Cl)ccc4O3)(C1)C2)OCc1ccccc1 (centres unmarked) [Compound 312, benzyl {4-[(6-chloro-4-oxo-3,4-dihydro-2H-1-benzopyran-2-carbonyl)amino]bicyclo[2.1.1]hexan-1-yl}carbamate]	500 to 2000 nM
O=C(COc1ccc(Cl)c(F)c1)NC12CC(NC(=O)C3=CC(O)c4cc(Cl)ccc4O3)(C1)C2 (centres unmarked) [Compound 315, 6-chloro-N-{3-[2-(4-chloro-3-fluorophenoxy)acetamido]bicyclo[1.1.1]pentan-1-yl}-4-hydroxy-4H-1-benzopyran-2-carboxamide]	< 10 nM
O=C(COc1ccc(F)c(F)c1)NC12CC(NC(=O)[C@@H]3CC(=O)c4cc(F)c(F)cc4O3)(C1)C2 [Compound 321, (2S)—N-{3-[2-(3,4-difluorophenoxy)acetamido]bicyclo[1.1.1]pentan-1-yl}-6,7-difluoro-4-oxo-3,4-dihydro-2H-1-benzopyran-2-carboxamide]	50 to 250 nM
O=C(COc1cnc(C(F)(F)F)nc1)NC12CC(NC(=O)[C@H]3C[C@@H](O)c4cc(Cl)ccc4O3)(C1)C2 [Compound 228, (2R,4R)-6-chloro-4-hydroxy-N-[3-(2-{[2-(trifluoromethyl)pyrimidin-5-yl]oxy}acetamido)bicyclo[1.1.1]pentan-1-yl]-3,4-dihydro-2H-1-benzopyran-2-carboxamide]	10 to 50 nM
O=C(NC12CC(NC(=O)C3CC(O)c4cc(Cl)ccc4O3)(C1)C2)c1cnc(C(F)F)cn1 (centres unmarked) [Compound 213, N-{3-[(6-chloro-4-hydroxy-3,4-dihydro-2H-1-benzopyran-2-carbonyl)amino]bicyclo[1.1.1]pentan-1-yl}-5-(difluoromethyl)pyrazine-2-carboxamide]	10 to 50 nM
O=C(COc1ccc(Cl)c(F)c1)NC12CC(NC(=O)[C@@H]3C[C@@H](O)c4cc(Cl)ccc4O3)(C1)C2 [Compound 198, (2S,4R)-6-chloro-N-{3-[2-(4-chloro-3-fluorophenoxy)acetamido]bicyclo[1.1.1]pentan-1-yl}-4-hydroxy-3,4-dihydro-2H-1-benzopyran-2-carboxamide]	< 10 nM
Cc1ccc2c(=O)cc(C(=O)NC34CC(NC(=O)COc5ccc(Cl)c(F)c5)(C3)C4)oc2c1 [Compound 284, N-{3-[2-(4-chloro-3-fluorophenoxy)acetamido]bicyclo[1.1.1]pentan-1-yl}-7-methyl-4-oxo-4H-1-benzopyran-2-carboxamide]	10 to 50 nM
O=C(NC12CC(NC(=O)[C@H]3C[C@@H](O)c4cc(Cl)ccc4O3)(C1)C2)c1ccc(OC(F)(F)F)cn1 [Compound 376, N-(3-{[(2R,4R)-6-chloro-4-hydroxy-3,4-dihydro-2H-1-benzopyran-2-carbonyl]amino}bicyclo[1.1.1]pentan-1-yl)-5-(trifluoromethoxy)pyridine-2-carboxamide]	10 to 50 nM
O=C(COc1ccc(Cl)c(F)c1)NC12CC(NC(=O)[C@H]3C[C@H](O)c4cc(Cl)ccc4O3)(C1)C2 [Compound 197, (2R,4S)-6-chloro-N-{3-[2-(4-chloro-3-fluorophenoxy)acetamido]bicyclo[1.1.1]pentan-1-yl}-4-hydroxy-3,4-dihydro-2H-1-benzopyran-2-carboxamide]	< 10 nM
